Changes are numbered by the printed parent chain.
Legend:
[1] = target: T1, Seed linoleate 13S-lipoxygenase-1 (Glycine max, UniProt P08170); assay: In Vitro Soybean Lipoxygenase (SLO) Inhibition Assay; details: pH 8
T1 sequence (P08170 whole entry): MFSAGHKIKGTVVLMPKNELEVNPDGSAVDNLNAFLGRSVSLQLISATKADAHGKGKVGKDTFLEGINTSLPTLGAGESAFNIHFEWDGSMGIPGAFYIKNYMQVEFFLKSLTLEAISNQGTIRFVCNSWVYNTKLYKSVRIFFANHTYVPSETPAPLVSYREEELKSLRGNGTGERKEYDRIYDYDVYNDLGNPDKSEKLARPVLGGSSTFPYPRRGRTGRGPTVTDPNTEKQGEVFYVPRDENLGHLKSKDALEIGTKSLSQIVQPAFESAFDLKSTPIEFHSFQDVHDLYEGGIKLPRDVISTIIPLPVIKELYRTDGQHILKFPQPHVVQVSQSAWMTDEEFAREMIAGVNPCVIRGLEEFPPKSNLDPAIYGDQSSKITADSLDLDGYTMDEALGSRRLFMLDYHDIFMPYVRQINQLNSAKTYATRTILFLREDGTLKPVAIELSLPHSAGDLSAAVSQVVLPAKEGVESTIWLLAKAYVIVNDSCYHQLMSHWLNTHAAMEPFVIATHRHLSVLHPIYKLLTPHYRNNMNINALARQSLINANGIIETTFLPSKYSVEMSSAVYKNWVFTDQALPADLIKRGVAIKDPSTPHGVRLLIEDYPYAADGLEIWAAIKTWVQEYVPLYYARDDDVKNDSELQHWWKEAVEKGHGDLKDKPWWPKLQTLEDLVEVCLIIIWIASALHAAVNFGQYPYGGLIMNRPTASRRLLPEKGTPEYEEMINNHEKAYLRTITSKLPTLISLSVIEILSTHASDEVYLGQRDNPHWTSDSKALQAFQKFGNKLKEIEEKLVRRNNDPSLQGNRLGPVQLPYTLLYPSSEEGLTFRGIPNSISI
Source text: Following are the compositions of the blank, control and sample.

[2] = target: T2, Lipoxygenase (Soybean, UniProt B3TDK4); assay: Molecular Docking
T2 sequence (B3TDK4 whole entry): T1 sequence (P08170 whole entry) with S160E
Protocol: The crystal structure of soybean lipoxygenase-1 (PDB code: 3PZW), was used in our docking experiments. The 3D structure of 3PZW was reported by Chruszcz et al. [Chruszcz et al., Biophys. J., 95(1):1-9] using X-ray diffraction technique with a resolution of […] . The docking of ligands to the catalytic site of soybean lipoxygenase was performed using AutoDock 4.0 software (http://autodock.scripps.edu/).

| IC50 [1] | Ki [2] | SMILES |
| --- | --- | --- |
| 22600 nM | 246 nM | CCOC(=O)c1c(C)oc(-c2ccc(C)cc2)c1CC(=O)c1ccc(C)cc1 [2-Methyl-4-(2-oxo-2-p-tolyl-ethyl)-5-p-tolyl-furan-3-carboxylic acid ethyl ester (3d)] |
| 287000 nM | 868 nM | CCOC(=O)c1c(C)oc(-c2ccccc2)c1CC(=O)c1ccccc1 [2-Methyl-4-(2-oxo-2-phenyl-ethyl)-5-phenyl-furan-3-carboxylic acid ethyl ester (3b)] |
| 78500 nM | 662 nM | COC(=O)c1c(C)oc(-c2ccccc2)c1CC(=O)c1ccccc1 [2-Methyl-4-(2-oxo-2-phenyl-ethyl)-5-phenyl-furan-3-carboxylic acid methyl ester (3a)] |
| 47500 nM | 357 nM | COC(=O)c1c(C)oc(-c2ccc(C)c(Cl)c2)c1CC(=O)c1ccc(C)c(Cl)c1 [5-(3-Chloro-4-methyl-phenyl)-4-[2-(3-chloro-4-methyl-phenyl)-2-oxo-ethyl)-2-methyl-furan-3-carboxylic acid methyl ester (3i)] |
| 21200 nM | 141 nM | CCOC(=O)c1c(C)oc(-c2ccc(Br)cc2)c1CC(=O)c1ccc(Br)cc1 [5-(4-Bromo-phenyl)-4[2-(4-bromo-phenyl)-2-oxo-ethyl]-2-methyl-furan-3-carboxylic acid ethyl ester (3f)] |
| 12800 nM | 70.9 nM | COC(=O)c1c(C)oc(-c2ccc(Br)cc2)c1CC(=O)c1ccc(Br)cc1 [5-(4-Bromo-phenyl)-4[2-(4-bromo-phenyl)-2-oxo-ethyl]-2-methyl-furan-3-carboxylic acid methyl ester (3e)] |
| 32000 nM | 345 nM | CCOC(=O)c1c(C)oc(-c2ccc(Cl)cc2)c1CC(=O)c1ccc(Cl)cc1 [5-(4-Chloro-phenyl)-4[2-(4-chloro-phenyl)-2-oxo-ethyl]-2-methyl-furan-3-carboxylic acid ethyl ester (3h)] |
| 32500 nM | 313 nM | COC(=O)c1c(C)oc(-c2ccc(Cl)cc2)c1CC(=O)c1ccc(Cl)cc1 [5-(4-Chloro-phenyl)-4[2-(4-chloro-phenyl)-2-oxo-ethyl]-2-methyl-furan-3-carboxylic acid methyl ester (3g)] |
|  | 232 nM | CC(Cc1ccc(O)c(O)c1)C(C)Cc1ccc(O)c(O)c1 (centres undefined) [LOX inhibitor, N/A] |
| 22100 nM | 178 nM | COC(=O)c1c(C)oc(-c2ccc(C)cc2)c1CC(=O)c1ccc(C)cc1 [Methyl 2-methyl-5-(4-methylphenyl)-4-[2-(4-methylphenyl)-2-oxoethyl]furan-3-carboxylate (3c)] |

— BindingDB's records for doi:10.1016/j.bioorg.2017.01.016 (CSIR-Indian Institute of Chemical Biology, 2017)
